Results taken from ChEMBL document CHEMBL1201861, “Genomics of Drug Sensitity in Cancer screening data, Wellcome Trust Sanger Institute”.

What was measured:
[1] = test system: CAL-33; assay: cells; type: functional, cell-based, Homo sapiens; settings: Homo sapiens, CAL-33;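 further: growth inhibition of CAL-33 cells, read out with a cell viability assay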
Description: SANGER: Inhibition of human CAL-33 cell growth in a cell viability assay.

[2] = test system: LCLC-97TM1; assay: cells; type: functional, cell-based, Homo sapiens; settings: Homo sapiens, LCLC-97TM1;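 further: cell viability assay measuring growth inhibition of human LCLC-97TM1 cells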
Description: SANGER: Inhibition of human LCLC-97TM1 cell growth in a cell viability assay.

[3] = test system: SW626; assay: cells; type: functional, cell-based, Homo sapiens; settings: Homo sapiens, SW626;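 further: growth inhibition of SW626 cells, measured with a cell viability assay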
Description: SANGER: Inhibition of human SW626 cell growth in a cell viability assay.

[4] = test system: NCI-H810; assay: cells; type: functional, cell-based, Homo sapiens; settings: Homo sapiens, NCI-H810;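 further: IC50 reflects inhibition of cancer cell line growth, read out with a cell viability assay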
Description: SANGER: Inhibition of human NCI-H810 cell growth in a cell viability assay.

[5] = test system: MKN-45; assay: cells; type: functional, cell-based, Homo sapiens; settings: Homo sapiens, MKN-45;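 further: growth inhibition of human MKN-45 cells, measured with a cell viability assay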
Description: SANGER: Inhibition of human MKN45 cell growth in a cell viability assay.

[6] = test system: SW1088; assay: cells; type: functional, cell-based, Homo sapiens; settings: Homo sapiens, SW1088;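 further: growth inhibition of human SW1088 cells, read out by a cell viability assay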
Description: SANGER: Inhibition of human SW1088 cell growth in a cell viability assay.

[7] = test system: BCPAP; assay: cells; type: functional, cell-based, Homo sapiens; settings: Homo sapiens, BCPAP
Description: SANGER: Inhibition of human BCPAP cell growth in a cell viability assay.

[8] = test system: A-427; assay: cells; type: functional, cell-based, Homo sapiens; settings: Homo sapiens, A-427;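 further: growth inhibition of human A-427 cells, read out by a cell viability assay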
Description: SANGER: Inhibition of human A427 cell growth in a cell viability assay.

[9] = test system: ESS-1; assay: cells; type: functional, cell-based, Homo sapiens; settings: Homo sapiens, ESS-1;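 further: growth inhibition of human ESS-1 cells, read out by a cell viability assay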
Description: SANGER: Inhibition of human ESS-1 cell growth in a cell viability assay.

[10] = test system: CHP-212; assay: cells; type: functional, cell-based, Homo sapiens; settings: Homo sapiens, CHP-212
Description: SANGER: Inhibition of human CHP-212 cell growth in a cell viability assay.

[11] = test system: KYSE-450; assay: cells; type: functional, cell-based, Homo sapiens; settings: Homo sapiens, KYSE-450;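 further: cell growth inhibition measured by a viability assay in human KYSE-450 cells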
Description: SANGER: Inhibition of human KYSE-450 cell growth in a cell viability assay.

[12] = test system: KOSC-2; assay: cells; type: functional, cell-based, Homo sapiens; settings: Homo sapiens, KOSC-2;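 further: growth inhibition of KOSC-2 cells, read out by a cell viability assay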
Description: SANGER: Inhibition of human KOSC-2 cell growth in a cell viability assay.

[13] = test system: MEL-HO; assay: cells; type: functional, cell-based, Homo sapiens; settings: Homo sapiens, MEL-HO
Description: SANGER: Inhibition of human MEL-HO cell growth in a cell viability assay.

[14] = test system: A673; assay: cells; type: functional, cell-based, Homo sapiens; settings: Homo sapiens, A673;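 further: growth inhibition of human A673 cells, read out through a cell viability assay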
Description: SANGER: Inhibition of human A673 cell growth in a cell viability assay.

[15] = test system: H-EMC-SS; assay: cells; type: functional, cell-based, Homo sapiens; settings: Homo sapiens, H-EMC-SS
Description: SANGER: Inhibition of human H-EMC-SS cell growth in a cell viability assay.

[16] = test system: DoTc2-4510; assay: cells; type: functional, cell-based, Homo sapiens; settings: Homo sapiens, DoTc2-4510
[17] = test system: OAW-28; assay: cells; type: functional, cell-based, Homo sapiens; settings: Homo sapiens, OAW-28;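 further: growth inhibition of OAW-28 cells, read out with a cell viability assay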
Description: SANGER: Inhibition of human OAW-28 cell growth in a cell viability assay.

[18] = test system: HT55; assay: cells; type: functional, cell-based, Homo sapiens; settings: Homo sapiens, HT55;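 further: cell viability readout measuring growth inhibition of human HT55 cells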
Description: SANGER: Inhibition of human HT55 cell growth in a cell viability assay.

[19] = test system: HTC-C3; assay: cells; type: functional, cell-based, Homo sapiens; settings: Homo sapiens, HTC-C3
Description: SANGER: Inhibition of human HTC-C3 cell growth in a cell viability assay.

[20] = test system: NCI-H292; assay: cells; type: functional, cell-based, Homo sapiens; settings: Homo sapiens, NCI-H292;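 further: growth inhibition of NCI-H292 cells, read out with a cell viability assay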
Description: SANGER: Inhibition of human NCI-H292 cell growth in a cell viability assay.

[21] = test system: KNS-62; assay: cells; type: functional, cell-based, Homo sapiens; settings: Homo sapiens, KNS-62
Description: SANGER: Inhibition of human KNS-62 cell growth in a cell viability assay.

[22] = test system: Daoy; assay: cells; type: functional, cell-based, Homo sapiens; settings: Homo sapiens, Daoy
Description: SANGER: Inhibition of human Daoy cell growth in a cell viability assay.

[23] = test system: CAKI-1; assay: cells; type: functional, cell-based, Homo sapiens; settings: Homo sapiens, CAKI-1;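 further: growth inhibition of CAKI-1 cells, measured by a cell viability assay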
Description: SANGER: Inhibition of human CAKI-1 cell growth in a cell viability assay.

[24] = test system: HCC70; assay: cells; type: functional, cell-based, Homo sapiens; settings: Homo sapiens, HCC70;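 further: cell viability assay measuring how strongly the compound suppresses proliferation of HCC70 cells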
Description: SANGER: Inhibition of human HCC70 cell growth in a cell viability assay.

[25] = test system: CAL-54; assay: cells; type: functional, cell-based, Homo sapiens; settings: Homo sapiens, CAL-54;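 further: growth inhibition of CAL-54 cells, read out by a viability measurement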
Description: SANGER: Inhibition of human CAL-54 cell growth in a cell viability assay.

[26] = test system: RERF-LC-MS; assay: cells; type: functional, cell-based, Homo sapiens; settings: Homo sapiens, RERF-LC-MS;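 further: growth inhibition of human RERF-LC-MS cells, read out by a cell viability assay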
Description: SANGER: Inhibition of human RERF-LC-MS cell growth in a cell viability assay.

[27] = test system: 8505C; assay: cells; type: functional, cell-based, Homo sapiens; settings: Homo sapiens, 8505C
Description: SANGER: Inhibition of human 8505C cell growth in a cell viability assay.

[28] = test system: NCI-H522; assay: cells; type: functional, cell-based, Homo sapiens; settings: Homo sapiens, NCI-H522;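 further: cell viability assay measuring growth inhibition of human NCI-H522 cells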
Description: SANGER: Inhibition of human NCI-H522 cell growth in a cell viability assay.

[29] = test system: LC4-1; assay: cells; type: functional, cell-based, Homo sapiens; settings: Homo sapiens, LC4-1;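 further: growth inhibition of LC4-1 cells, read out with a cell viability assay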
Description: SANGER: Inhibition of human LC4-1 cell growth in a cell viability assay.

[30] = test system: SW-620; assay: cells; type: functional, cell-based, Homo sapiens; settings: Homo sapiens, SW-620;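 further: growth inhibition of human SW-620 cells, measured by a cell viability assay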
Description: SANGER: Inhibition of human SW620 cell growth in a cell viability assay.

[31] = test system: TALL-1; assay: cells; type: functional, cell-based, Homo sapiens; settings: Homo sapiens, TALL-1;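 further: growth inhibition of cultured human TALL-1 cells, read out by a cell viability assay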
Description: SANGER: Inhibition of human TALL-1 cell growth in a cell viability assay.

[32] = test system: NCI-H2141; assay: cells; type: functional, cell-based, Homo sapiens; settings: Homo sapiens, NCI-H2141;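 further: growth inhibition of human NCI-H2141 cells, read out with a cell viability assay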
Description: SANGER: Inhibition of human NCI-H2141 cell growth in a cell viability assay.

[33] = test system: SNU-C1; assay: cells; type: functional, cell-based, Homo sapiens; settings: Homo sapiens, SNU-C1;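 further: growth inhibition of SNU-C1 human cells, read out by a cell viability assay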
Description: SANGER: Inhibition of human SNU-C1 cell growth in a cell viability assay.

[34] = test system: IMR-5; assay: cells; type: functional, cell-based, Homo sapiens; settings: Homo sapiens, IMR-5;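 further: growth inhibition of human IMR-5 cells, read out with a cell viability assay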
Description: SANGER: Inhibition of human IMR-5 cell growth in a cell viability assay.

[35] = test system: RPMI 8402; assay: SANGER: Inhibition of human RPMI-8402 cell growth in a cell viability assay.; type: functional, cell-based; settings: Homo sapiens, RPMI 8402; read-out: IC50
[36] = test system: YT; assay: cells; type: functional, cell-based, Homo sapiens; settings: Homo sapiens, YT
Description: SANGER: Inhibition of human YT cell growth in a cell viability assay.

[37] = test system: LP-1; assay: cells; type: functional, cell-based, Homo sapiens; settings: Homo sapiens, LP-1;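 further: growth inhibition of human LP-1 cells, with the read-out taken from a cell viability assay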
Description: SANGER: Inhibition of human LP-1 cell growth in a cell viability assay.

[38] = test system: A-375; assay: cells; type: functional, cell-based, Homo sapiens; settings: Homo sapiens, A-375;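 further: growth inhibition of A375 cells, read out with a cell viability assay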
Description: SANGER: Inhibition of human A375 cell growth in a cell viability assay.

[39] = test system: EB2; assay: cells; type: functional, cell-based, Homo sapiens; settings: Homo sapiens, EB2;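 further: growth inhibition of EB2 cells, read out with a cell viability assay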
Description: SANGER: Inhibition of human EB2 cell growth in a cell viability assay.

[40] = test system: NCI-H596; assay: cells; type: functional, cell-based, Homo sapiens; settings: Homo sapiens, NCI-H596;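 further: growth inhibition of NCI-H596 cells, read out with a cell viability assay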
Description: SANGER: Inhibition of human NCI-H596 cell growth in a cell viability assay.

[41] = test system: BL-70; assay: SANGER: Inhibition of human BL-70 cell growth in a cell viability assay.; type: functional, cell-based; settings: Homo sapiens, BL-70
[42] = test system: IM-9; assay: SANGER: Inhibition of human IM-9 cell growth in a cell viability assay.; type: functional, cell-based; settings: Homo sapiens, IM-9
[43] = test system: SK-N-AS; assay: cells; type: functional, cell-based, Homo sapiens; settings: Homo sapiens, SK-N-AS;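 further: growth inhibition of human SK-N-AS cells, measured with a cell viability assay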
Description: SANGER: Inhibition of human SK-N-AS cell growth in a cell viability assay.

[44] = test system: EVSA-T; assay: cells; type: functional, cell-based, Homo sapiens; settings: Homo sapiens, EVSA-T;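 further: growth inhibition of EVSA-T cells, read out with a cell viability assay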
Description: SANGER: Inhibition of human EVSA-T cell growth in a cell viability assay.

[45] = test system: KYSE-520 cell line; assay: cells; type: functional, cell-based, Homo sapiens; settings: Homo sapiens, KYSE-520;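 further: growth inhibition of human KYSE-520 cells, read out with a viability assay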
Description: SANGER: Inhibition of human KYSE-520 cell growth in a cell viability assay.

[46] = test system: HuP-T3; assay: cells; type: functional, cell-based, Homo sapiens; settings: Homo sapiens, HuP-T3;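 further: HuP-T3 cell growth inhibition, read out with a cell viability assay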
Description: SANGER: Inhibition of human HuP-T3 cell growth in a cell viability assay.

[47] = test system: SK-MEL3; assay: cells; type: functional, cell-based, Homo sapiens, SK-MEL-3; settings: Homo sapiens, SK-MEL3;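 further: growth inhibition of human SK-MEL-3 cells, read out with a cell viability assay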
Description: SANGER: Inhibition of human SK-MEL-3 cell growth in a cell viability assay.

[48] = test system: SK-MEL-28; assay: cells; type: functional, cell-based, Homo sapiens; settings: Homo sapiens, SK-MEL-28;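 further: growth inhibition of human SK-MEL-28 cells, read out with a cell viability assay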
Description: SANGER: Inhibition of human SK-MEL-28 cell growth in a cell viability assay.

Measured: IC50

CN(C)C(=N)NC(=N)N [METFORMIN]
3.17 mM: [2]
5.87 mM: [20]
3.36 mM: [25]
> 20 mM: [1] | [3] | [4] | [5] | [6] | [7] | [9] | [11] | [15] | [16] | [17] | [18] | [19] | [21] | [22] | [23] | [24]
19.2 mM: [14]
3.4 mM: [12]
15.4 mM: [27]
14.4 mM: [26]
9.63 mM: [10]
7.17 mM: [8]
8.84 mM: [13]

N#Cc1c(O)c2c(-c3ccc(-c4ccccc4O)cc3)csc2[nH]c1=O
381 nM: [44]
108 nM: [41]
46.7 nM: [36]
142 nM: [39]
633 nM: [32]
> 1020 nM: [28] | [30] | [31] | [33] | [34] | [37] | [38] | [40] | [42] | [43] | [45] | [46] | [47] | [48]
442 nM: [35]
563 nM: [29]
not listed: [15] | [21]
> 0.00102 mM: all other assays above
